Laboratory results: the supplement of paper PMC10307832

Compound: O=C(/C=C/c1ccccc1)NC(NC(=S)Nc1cccc2cccnc12)C(Cl)(Cl)Cl [Salubrinal] + Cc1nc(NC(=O)N2CCC[C@H]2C(N)=O)sc1-c1ccnc(C(C)(C)C(F)(F)F)c1 [Alpelisib] (partner 2 µM)
Assay: relative viability (nuclei count vs DMSO), 5 days (fraction); higher = more cells survive
Details: first compound 0.08 µM
Outline: (§1)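 Dosing by pin tool came one day after lung cancer cell lines were seeded in 1536-well plates, using either one drug or a fixed anchor-drug dose plus five library-drug doses (not always all listed) in √10 steps. After 5 days, nuclei were counted on 4× images. Relative viability is treated-well nuclei count divided by vehicle-well nuclei count, and values are medians of duplicate plates.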

Cell Line | relative viability
NCI-H1755 | 1.04
HCC-15 | 0.988
PC-14 | 1.05
EKVX | 1.14
LC-2-ad | 1.01
NCI-H1975 | 0.713
RERF-LC-KJ | 0.912
ABC-1 | 1
NCI-H1944 | 0.912
NCI-H650 | 1.29
PC-3 [JPC-3] | 1.08

Same assay, conditions: first compound 0.253 µM

Cell Line | relative viability
NCI-H1755 | 0.795
HCC-15 | 0.789
PC-14 | 0.756
EKVX | 0.729
LC-2-ad | 0.784
NCI-H1975 | 0.467
RERF-LC-KJ | 0.824
ABC-1 | 0.952
NCI-H1944 | 0.912
NCI-H650 | 1.14
PC-3 [JPC-3] | 0.98

Same assay, conditions: first compound 0.8 µM

Cell Line | relative viability
NCI-H1755 | 1.01
HCC-15 | 0.994
PC-14 | 1.14
EKVX | 1.01
LC-2-ad | 0.92
NCI-H1975 | 0.766
RERF-LC-KJ | 0.925
ABC-1 | 1.2
NCI-H1944 | 0.871
NCI-H650 | 1.14
PC-3 [JPC-3] | 1.13

Same assay, conditions: first compound 2.53 µM

Cell Line | relative viability
NCI-H1755 | 0.948
HCC-15 | 0.94
PC-14 | 0.968
EKVX | 0.887
LC-2-ad | 0.881
NCI-H1975 | 0.674
RERF-LC-KJ | 0.813
ABC-1 | 1
NCI-H1944 | 0.871
NCI-H650 | 1.11
PC-3 [JPC-3] | 1.07

Same assay, conditions: first compound 8 µM

Cell Line | relative viability
NCI-H1755 | 0.893
HCC-15 | 0.945
PC-14 | 0.562
EKVX | 0.88
LC-2-ad | 0.831
NCI-H1975 | 0.579
RERF-LC-KJ | 0.698
ABC-1 | 1.12
NCI-H1944 | 0.795
NCI-H650 | 1.04
PC-3 [JPC-3] | 1.03

Compound: Cc1ccc2nc(NCCN)c3ncc(C)n3c2c1 + COc1cc2c(Oc3ccc(NC(=O)C4(C(=O)Nc5ccc(F)cc5)CC4)cc3F)ccnc2cc1OCCCN1CCOCC1 [Foretinib] (partner 0.25 µM)
Assay: as above
Details: first compound 0.04 µM
Outline: as §1

Cell Line | relative viability
NCI-H1755 | 0.936
HCC-15 | 1.08
PC-14 | 0.944
EKVX | 0.987
LC-2-ad | 0.96
NCI-H1975 | 0.992
RERF-LC-KJ | 0.911
ABC-1 | 1.22
NCI-H1944 | 0.896
NCI-H650 | 1.09
PC-3 [JPC-3] | 1.1

Same assay, conditions: first compound 0.1265 µM

Cell Line | relative viability
NCI-H1755 | 0.84
HCC-15 | 1.07
PC-14 | 0.908
EKVX | 1.04
LC-2-ad | 0.879
NCI-H1975 | 0.981
RERF-LC-KJ | 0.845
ABC-1 | 1.05
NCI-H1944 | 0.862
NCI-H650 | 0.937
PC-3 [JPC-3] | 1.04

Same assay, conditions: first compound 0.4 µM

Cell Line | relative viability
NCI-H1755 | 0.919
HCC-15 | 1.06
PC-14 | 0.984
EKVX | 0.866
LC-2-ad | 0.876
NCI-H1975 | 0.895
RERF-LC-KJ | 0.851
ABC-1 | 1.09
NCI-H1944 | 0.773
NCI-H650 | 1.12
PC-3 [JPC-3] | 0.934

Same assay, conditions: first compound 1.265 µM

Cell Line | relative viability
NCI-H1755 | 0.928
HCC-15 | 0.885
PC-14 | 0.933
EKVX | 0.822
LC-2-ad | 0.984
NCI-H1975 | 0.947
RERF-LC-KJ | 0.796
ABC-1 | 0.839
NCI-H1944 | 0.9
NCI-H650 | 0.948
PC-3 [JPC-3] | 0.986

Same assay, conditions: first compound 4 µM

Cell Line | relative viability
NCI-H1755 | 0.876
HCC-15 | 0.723
PC-14 | 0.943
EKVX | 0.777
LC-2-ad | 0.868
NCI-H1975 | 0.882
RERF-LC-KJ | 0.828
ABC-1 | 1.01
NCI-H1944 | 0.958
NCI-H650 | 1
PC-3 [JPC-3] | 1.09
